Entries after “also recorded” stand apart in the source; their conditions may differ.
Legend:
[1] = test system: GM1 deficient mice (HT, KO); assay: Motor function in GM1 deficient mice (grip duration, irritant removal, pole climbing); format: in vivo, mouse; details: HT mice 200 DOA
Protocol: FIG. 4. […] Grip duration (a) and irritant removal (b) were tested in mice at 200 DOA before and after IP injection of L-DOPA.
FIG. 5. […] Mice (200 DOA) were treated IP with saline or compound XVIII (2.5 mg/Kg; 3×/wk) over 5 weeks. (a) grip duration; (b) irritant removal; (c) pole climbing.
HT mice (200 DOA) were treated with saline or analog XVIII (2.5 mg/Kg; 3×/wk; IP) over 5 weeks.

[2] = test system: RET phosphorylation (RET-p); assay: RET phosphorylation in GM1 deficient mice, IHC with anti-RET-P and anti-TH; format: in vivo, mouse
Description: FIG. 8. GM1 replacement restores normal RET phosphorylation (RET-p) from subnormal state in GM1 deficient mice.

[3] = test system: NG108-15 neuroblastoma cells; assay: Cell death and neurite outgrowth in MPP-treated differentiated neuroblastoma cells; format: cell-based
Description: FIG. 12. GM1 replacement therapy reduces cell death and increases neurite outgrowth. NG108-15 neuroblastoma cells were differentiated for 7 days with db-cAMP/KCl, then treated 2 days with MPP and indicated compound for 2 days. […] LIGA-20 is GM1 analog XVIII and compound 6 is analog XXXVII/XXXVIII.

[4] = test system: GM1 deficient mice (HT, KO); assay: Rescue of striatal dopamine levels and dopaminergic cells in the GM1 deficient mouse (IHC of SNpc); format: in vivo; details: HT mice 200 days old, 2.5 mg/Kg, 3x/wk, ip, 5 weeks, vs saline
Protocol: FIG. 3. Reversal of PD neuropathology by GM1 replacement. HT mice (200 days old) were treated with saline or compound XVIII (2.5 mg/Kg; 3×/wk, ip) over 5 weeks.
Heterozygote mice (200 days old, DOA) were treated with saline or analog XVIII (2.5 mg/Kg; 3×/wk, IP) over 5 weeks.

[5] = test system: NG-CR72 cells lacking GM1; assay: Spontaneous alpha-synuclein aggregation in differentiated cells deficient in GM1; format: cell-based; details: 1 μM; cells differentiated with db-cAMP/KCl
Description: FIG. 9. Spontaneous formation of alpha-synuclein aggregates in cells deficient in GM1.

HT GM1 deficient mice = assay: Cognitive function in GM1 deficient mice, T-maze test; format: in vivo, mouse; details: 4 wks dosing, 4 mice/group, saline control
Protocol: FIG. 6. […] T-maze test: 4 wks dosing with GM1 analog XVIII; 4 mice/group; age as indicated. The rate of alternation is a statistical plot as 0.5 (pure chance) to 1.0 (perfect score). Saline was administered as control.
HT and KO mice in two age groups were evaluated for cognitive function with the T maze test (FIG. 6).

MPTP-treated mice = assay: Rescue of striatal dopamine levels and dopaminergic cells in MPTP-treated mice; format: in vivo, C57B1/6 mice; details: once daily for 3 weeks after MPTP; GM1 30 mg/kg IP; analogs 2, 3, 4, 6, LIGA20 at 0.3 or 30 mg/Kg IP or 30 mg/Kg PO (FIG. 10)
Protocol: FIG. 10. GM1 analogs increase dopamine and TH+ cell numbers in the SNpc of MPTP treated mice. All agents administered once daily (I.P. or P.O.) for 3 weeks following MPTP treatment. (a) GM1 (1; 30 mg/Kg; IP), analog (3, 4 and 6; 0.3 mg/Kg; IP). (b) LIGA20 (2; 30 mg/Kg), analogs (2, 3 and 6; 30 mg/Kg; IP). (c) analogs (4 and 6; 30 mg/Kg; PO). (d) TH+IHC of the SNpc after treatment with saline or analog (6) (30 mg/Kg; PO) C=saline control. I and II are two separate experiments. Compound 2 is (XXIX/XXX), compound 3 is (XXVII/XXVIII), compound 4 is (XXXI/XXXII), compound 6 is (XXXVIII/XXXVII). LIGA20 is (XVIII).
C57B1/6 mice 7-8 weeks of age were treated with MPTP (b.i.d., 20 mg/kg, s.c.). The mice also receive a daily administration of saline, GM1 (30 mg/kg), or a compound of the invention (0.3 to 3 mg/kg, i.p. and 30 mg/kg os) for three weeks starting 24 h after the last MPTP injection. The brains were removed and analyzed for striatal dopamine levels. The midbrain were fixed for TH immunohistochemistry and dopamine neuron cell counts.

[6] = test system: Parkinson's disease patients; details: peripheral subcutaneous administration for 5 years; cited from earlier work
[7] = peripheral subcutaneous administration; cited from earlier work
rat cortical cells = assay: Protection of cortical cells from apoptosis (hydrogen peroxide, MTT assay); format: cell-based; details: 50 μM hydrogen peroxide, FIG. 11
Protocol: To induce apoptosis, rat cortical cells were cultured and treated with 50 μM hydrogen peroxide for three hours prior to being treated with the ganglioside analogue. The cells were also treated with the hydrogen peroxide during treatment with the ganglioside analogue and post-treatment for 48 h. Cell death was assayed using the MTT assay.

[8] = 1 μM, differentiated 7 days with db-cAMP/KCl, MPP and compound 2 days

For `N[C@@H](Cc1ccc(O)c(O)c1)C(=O)O` [L-DOPA, reference compound], the “motor deficits (grip duration, irritant removal)” value ([1]; before and after IP injection of L-DOPA) was “alleviates motor deficits”.
In the case of `CCCCCCCCCCCCC/C=C/[C@@H](O)[C@H](CO[C@@H]1OC(CO)[C@@H](O[C@@H]2OC(CO)[C@H](O[C@@H]3OC(CO)[C@H](O)[C@H](O[C@@H]4OC(CO)[C@H](O)[C@H](O)C4O)C3NC(C)=O)[C@H](O[C@]3(C(=O)O)C[C@@H](O)[C@@H](NC(C)=O)C([C@H](O)[C@H](O)CO)O3)C2O)[C@H](O)C1O)NC(=O)C(Cl)Cl` (some centres unmarked) [compound XVIII], the “RET phosphorylation (RET-p)” value ([2]; HT mice (low GM1)) is reported as “significantly elevated”, the “RET phosphorylation (RET-p)” value ([2]; KO mice (no GM1)) is reported as “significantly elevated” and the “% of cells with neurites” value [3, 8] is reported as “similarly improved”. For the same compound, the relative cell number [3, 8] was “significantly improved”, the “TH+ dopaminergic neuron number in SNpc” value [4] was “increase in TH+ dopaminergic cells; also recorded: neuron number increase” and the “striatal dopamine (DA) levels” value [4] was “elevation of striatal dopamine; also recorded: DA levels increase”. The “αSyn aggregates in TH+ cells of SNpc” value [4] was “reduction of αSynuclein; also recorded: αSyn aggregates decrease”, the “motor function (grip duration, irritant removal, pole climbing tests)” value ([1]; 2.5 mg/Kg, 3x/wk, IP, 5 weeks, vs saline, 2.5 mg/kg) was “significantly improved motor function; also recorded: improves motor function” and the “αSyn-aggregation (FITC-anti-αSyn antibody staining)” value [5] was “suppressed”. For the same compound, the “cognitive function, T-maze rate of alternation” value (HT GM1 deficient mice) was “improves cognitive function”.
In the case of GM1, the striatal dopamine levels (MPTP-treated mice) is reported as “increased striatal dopamine levels”, the “% of cells with neurites” value ([3]; GM1 at 100 μM) is reported as “similarly improved” and the relative cell number ([3]; GM1 at 100 μM, compared with LIGA-20 and compound 6 at 1 μM) is reported as “equivalent”. The “progression of motor function loss” value [6] was “slowed the progression of motor function loss”, the “share of the administered dose able to penetrate the brain” value [7] was “less than 1%” and the “protection of cells from apoptosis” value (rat cortical cells) was “provided protection of the cells from apoptosis”.

Reference: patent US20140187507A1, “TREATMENT OF PARKINSONS DISEASE WITH GLYCOLIPIDS” (Rutgers, The State University of New Jersey, priority 2012, published 2014)
